# Laboratory results reported in ChEMBL document CHEMBL5032536, “Synthesis and Cytotoxic Activity of Lepidilines A-D: Comparison with Some 4,5-Diphenyl Analogues and Related Imidazole-2-thiones” (J Nat Prod, 2021).
# Tests used:
# [1] = Selectivity ratio of IC50 for cytotoxicity against HUVEC cells to IC50 for cytotoxicity against human HL-60 cells; format: toxicity, cell-based; conditions: HUVEC cells versus HL-60 cells, read-out: Ratio IC50
# [2] = Selectivity ratio of IC50 for cytotoxicity against human MCF7 cells to IC50 for cytotoxicity against human HL-60 cells; format: toxicity, cell-based; conditions: MCF7 cells versus HL-60 cells, read-out: Ratio IC50
compound,measurement,setting,value
COc1cccc(Cn2c(C)c(C)[n+](Cc3ccccc3)c2C)c1,selectivity ratio,[1],> 100
same,selectivity ratio,[2],> 100
